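Five concentrations, 48 hours, 96-well plates. GI50: concentration for 50% inhibition of growth. TGI: concentration producing complete growth inhibition.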
Tests used:
Test in all cases: NCI-60 cell line screen, 48 h
HCT-116 colon = test system: HCT-116 colon
HS 578T breast = test system: HS 578T breast
MALME-3M melanoma = test system: MALME-3M melanoma
MDA-MB-231 breast = test system: MDA-MB-231 breast
OVCAR-8 ovarian = test system: OVCAR-8 ovarian
RPMI-8226 leukemia = test system: RPMI-8226 leukemia
RXF 393 renal = test system: RXF 393 renal
SNB-75 CNS = test system: SNB-75 CNS
TK-10 renal = test system: TK-10 renal
NCI/ADR-RES ovarian = test system: NCI/ADR-RES ovarian

Question: Which GI50 (HCT-116 colon) does the source give for `O=C(NN1C(=O)CSC1c1c(Cl)cccc1Cl)C(O)c1ccccc1` (centres undefined) here?
Answer: 36.7 µM

Question: What about the TGI (HCT-116 colon) of the same compound?
Answer: > 100 µM

Question: What about the GI50 (HS 578T breast) of the same compound?
Answer: > 100 µM

Question: What about the TGI (HS 578T breast) of the same compound?
Answer: > 100 µM

Question: And the GI50 (MALME-3M melanoma)?
Answer: 31.7 µM

Question: And the TGI (MALME-3M melanoma)?
Answer: > 100 µM

Question: What about the GI50 (MDA-MB-231 breast) of the same compound?
Answer: 19.2 µM

Question: What about the TGI (MDA-MB-231 breast) of the same compound?
Answer: > 100 µM

Question: What about the GI50 (OVCAR-8 ovarian) of the same compound?
Answer: 52 µM

Question: And the TGI (OVCAR-8 ovarian)?
Answer: > 100 µM

Question: And the GI50 (RPMI-8226 leukemia)?
Answer: 43.8 µM

Question: And the TGI (RPMI-8226 leukemia)?
Answer: > 100 µM

Question: And the GI50 (RXF 393 renal)?
Answer: 29.3 µM

Question: And the TGI (RXF 393 renal)?
Answer: > 100 µM

Question: And the GI50 (SNB-75 CNS)?
Answer: 32.4 µM

Question: And the TGI (SNB-75 CNS)?
Answer: > 100 µM

Question: What about the GI50 (TK-10 renal) of the same compound?
Answer: 78.9 µM

Question: What about the TGI (TK-10 renal) of the same compound?
Answer: > 100 µM

Question: Which results are given for `CC(=O)O[C@@H]1CC[C@@]2(C)C(=O)C34C[C@@]5(C)C([C@@H](C)CCCC(C)C)CCC5(C)[C@](O)(O3)C(=O)[C@H]4C2C1(C)C` (some centres undefined)?
Answer: TGI (HCT-116 colon): 27 µM; TGI (MALME-3M melanoma): 33.2 µM; TGI (OVCAR-8 ovarian): 32.9 µM; TGI (RPMI-8226 leukemia): 38.9 µM; TGI (SNB-75 CNS): 29.6 µM; TGI (TK-10 renal): 30.5 µM

Question: `Clc1ccccc1C1SCc2nc3ccccc3n21` (centres undefined) was tested. Which TGI (HCT-116 colon) did it give?
Answer: 56.3 µM

Question: And the TGI (MALME-3M melanoma)?
Answer: 53.4 µM

Question: What about the TGI (OVCAR-8 ovarian) of the same compound?
Answer: > 100 µM

Question: What about the TGI (RPMI-8226 leukemia) of the same compound?
Answer: > 100 µM

Question: What about the TGI (RXF 393 renal) of the same compound?
Answer: 60.5 µM

Question: What about the TGI (SNB-75 CNS) of the same compound?
Answer: 11.3 µM

Question: What about the TGI (TK-10 renal) of the same compound?
Answer: 71.6 µM

Question: Which TGI (HCT-116 colon) does the source give for `COc1cc2c(cc1-c1coc3cc(O)ccc3c1=O)OCO2` here?
Answer: 37.1 µM

Question: And the TGI (HS 578T breast)?
Answer: 58.2 µM

Question: And the TGI (NCI/ADR-RES ovarian)?
Answer: 48.4 µM

Question: And the TGI (OVCAR-8 ovarian)?
Answer: 40.1 µM

Question: And the TGI (RPMI-8226 leukemia)?
Answer: 77.5 µM

Question: And the TGI (SNB-75 CNS)?
Answer: 46.1 µM

Question: What about the TGI (TK-10 renal) of the same compound?
Answer: 43.9 µM

Question: `CC(=O)Nc1cc2c3c(cccc3c1)-c1ccccc1-2` was tested. Which GI50 (HCT-116 colon) did it give?
Answer: > 100 µM

Question: What about the TGI (HCT-116 colon) of the same compound?
Answer: > 100 µM

Question: And the GI50 (HS 578T breast)?
Answer: 29.3 µM

Question: And the TGI (HS 578T breast)?
Answer: 94.6 µM

Question: And the GI50 (MDA-MB-231 breast)?
Answer: 10.6 µM

Question: What about the TGI (MDA-MB-231 breast) of the same compound?
Answer: 25.8 µM

Question: What about the GI50 (NCI/ADR-RES ovarian) of the same compound?
Answer: 26.1 µM

Question: What about the TGI (NCI/ADR-RES ovarian) of the same compound?
Answer: > 100 µM

Question: What about the GI50 (OVCAR-8 ovarian) of the same compound?
Answer: 45.9 µM

Question: And the TGI (OVCAR-8 ovarian)?
Answer: > 100 µM

Question: And the GI50 (RXF 393 renal)?
Answer: 15.8 µM

Question: And the TGI (RXF 393 renal)?
Answer: 34.9 µM

Question: What about the GI50 (SNB-75 CNS) of the same compound?
Answer: > 100 µM

Question: What about the TGI (SNB-75 CNS) of the same compound?
Answer: > 100 µM

Question: What about the GI50 (TK-10 renal) of the same compound?
Answer: 18.1 µM

Question: And the TGI (TK-10 renal)?
Answer: 32.5 µM

Question: `CC1=CC[C@@H](C(C)(C)O)C[C@@H]1O` was tested. Which TGI (HCT-116 colon) did it give?
Answer: > 5000 µM

Question: And the TGI (MALME-3M melanoma)?
Answer: > 5000 µM

Question: And the TGI (OVCAR-8 ovarian)?
Answer: > 5000 µM

Question: And the TGI (RXF 393 renal)?
Answer: > 5000 µM

Question: What about the TGI (SNB-75 CNS) of the same compound?
Answer: > 5000 µM

Question: And the TGI (TK-10 renal)?
Answer: > 5000 µM

Question: How did the TGI (HCT-116 colon) turn out when `CC1C(O)=C(O)c2ccccc2N1O` (centres undefined) was run?
Answer: > 100 µM

Question: What about the TGI (MALME-3M melanoma) of the same compound?
Answer: > 100 µM

Question: And the TGI (OVCAR-8 ovarian)?
Answer: > 100 µM

Question: And the TGI (RPMI-8226 leukemia)?
Answer: > 100 µM

Question: And the TGI (RXF 393 renal)?
Answer: > 100 µM

Question: And the TGI (SNB-75 CNS)?
Answer: > 100 µM

Question: And the TGI (TK-10 renal)?
Answer: > 100 µM

Question: What does the source list for `C=C(Br)COc1ccc2c(C)cc(=O)oc2c1`?
Answer: TGI (HCT-116 colon): > 100 µM; TGI (HS 578T breast): > 100 µM; TGI (MALME-3M melanoma): > 100 µM; TGI (MDA-MB-231 breast): > 100 µM; TGI (NCI/ADR-RES ovarian): > 100 µM; TGI (OVCAR-8 ovarian): > 100 µM; TGI (RPMI-8226 leukemia): > 100 µM; TGI (RXF 393 renal): 81 µM; TGI (TK-10 renal): > 100 µM

Question: What does the source list for `COC(=O)C1=CC(=O)[C@@H]2CCCC[C@H]12`?
Answer: TGI (HCT-116 colon): > 100 µM; TGI (MALME-3M melanoma): > 100 µM; TGI (OVCAR-8 ovarian): > 100 µM; TGI (RPMI-8226 leukemia): > 100 µM; TGI (RXF 393 renal): > 100 µM; TGI (SNB-75 CNS): > 100 µM; TGI (TK-10 renal): > 100 µM

Question: With `N#Cc1cccc(C2C(=O)c3ccc(C(=O)c4ccc5c(c4)C(=O)N(c4ccc(Oc6ccc(N7C(=O)c8ccc(C(=O)c9ccc%10c(c9)C(=O)N(c9cccc(C#N)c9)C%10=O)cc8C7=O)cc6)cc4)C5=O)cc3C2=O)c1` (centres undefined) as the compound, how does the TGI (HCT-116 colon) read?
Answer: > 100 µM

Question: And the TGI (MALME-3M melanoma)?
Answer: > 100 µM

Question: What about the TGI (OVCAR-8 ovarian) of the same compound?
Answer: > 100 µM

Question: And the TGI (RPMI-8226 leukemia)?
Answer: > 100 µM

Question: And the TGI (RXF 393 renal)?
Answer: > 100 µM

Question: What about the TGI (SNB-75 CNS) of the same compound?
Answer: > 100 µM

Question: And the TGI (TK-10 renal)?
Answer: > 100 µM

Question: Which TGI (HCT-116 colon) does the source give for `N#C/C(=C\c1ccc[nH]1)C(=O)c1ccccc1` here?
Answer: > 100 µM

Question: What about the TGI (MALME-3M melanoma) of the same compound?
Answer: > 100 µM

Question: And the TGI (OVCAR-8 ovarian)?
Answer: > 100 µM

Question: What about the TGI (RPMI-8226 leukemia) of the same compound?
Answer: > 100 µM

Question: And the TGI (RXF 393 renal)?
Answer: > 100 µM

Question: What about the TGI (SNB-75 CNS) of the same compound?
Answer: > 100 µM

Question: What about the TGI (TK-10 renal) of the same compound?
Answer: > 100 µM

Question: What does the source list for `Fc1ccc(N=C2C=CC(=Nc3ccc(F)cc3)c3ccccc32)cc1`?
Answer: TGI (HCT-116 colon): > 100 µM; TGI (MALME-3M melanoma): > 100 µM; TGI (OVCAR-8 ovarian): > 100 µM; TGI (RPMI-8226 leukemia): > 100 µM; TGI (RXF 393 renal): > 100 µM; TGI (SNB-75 CNS): > 100 µM; TGI (TK-10 renal): > 100 µM
